Each block holds one compound with its values, some of them ahead of it.
Legend:
PC12-ErbB4-GFP cells [1] = assay: Nrg1-induced neurite outgrowth, live-cell imaging; assay type: cell-based
Procedure: (§1) Average outgrowth per cell was measured after 2 days incubation. C. Cells were pretreated with Iressa or Tarceva at various concentrations for 30 minutes followed by 20 ng/ml Nrg1. Mean outgrowth per cell was measured after 2 days incubation. D. Cells were pretreated with 2 μM Iressa or DMSO for 30 minutes followed by 20 ng/ml Nrg1 or NGF and lysed after 5 minutes. Cell lysates were immunoprecipitated by anti-ErbB4 antibody followed by western blotting with antibodies against phospho-tyrosine and ErbB4. Phosphor-ERK1/2 and total Erk2 levels were determined by direct western blotting with cell lysates.
C. […] Mean outgrowth per cell was measured after 2 days incubation.

ErbB4 [2] = target: T1, ErbB4 (Homo sapiens, UniProt Q15303); assay: Nrg1-induced ErbB4 phosphorylation (immunoprecipitation, western blot); assay type: cell-based; details: 1 μM Iressa, 20 ng/ml Nrg1, lysed after 5 minutes
T1 construct: expressed in transfected cells
Procedure: as §1, with “Cells were pretreated with 2 μM Iressa or DMSO for 30 minutes followed by 20 ng/ml Nrg1 or NGF and lysed after 5 minutes.” left out
(§2) Cells were lysed with RIPA buffer (Pierce Technology, Rockford, Ill.) containing 1 tablet/10 ml protease inhibitor cocktail Complete Mini (Roche Applied Science). For phosphoprotein analysis, Halt Phosphatase Inhibitor Cocktail (Pierce Technology) was also included. Cell lysate was cleared by centrifuge at 15,000 rpm for 30 min followed by addition of LDS sample buffer (Invitrogen) for direct analysis or immunoprecipitated with specific primary antibodies and Protein A/G agarose (Pierce Technology) following the manufacturer's protocol. […] The membrane was probed with specific primary antibodies according to specified recipes provided by their vendors and then horse radish peroxidase-conjugated secondary antibody to mouse or rabbit IgG (GE Healthcare, Piscataway, N.J.). Target protein bands were detected with SuperSignal West Femto Max Sensitivity Substrate (Pierce Technology).

ERK/MAPK = ERK/MAPK phosphorylation (western blot of cell lysates); assay type: cell-based
Procedure: as §1, with “Cells were pretreated with 2 μM Iressa or DMSO for 30 minutes followed by 20 ng/ml Nrg1 or NGF and lysed after 5 minutes.” left out
as §2

ErbB4 [3] = target: T1, ErbB4; assay: Iressa-conjugated agarose (iTrap) affinity capture of ErbB4 from cell lysate; assay type: binding; details: 10 uM free Iressa
Procedure: PC12-ErbB4-GFP cells were lysed with modified RIPA buffer at 4° C. for 10 min and the cell lysate was cleared by centrifugation. The cleared lysate (0.40 ml) was tumbled with Iressa (10 μM) or DMSO (1:1000 v/v) as indicated at 4° C. for 30 min before addition of the iTrap resin (10 μA). The resulting mixture was tumbled at 4° C. for 12 hours. The suspension was centrifuged and the supernatant was discarded. The resin was washed with the above modified RIPA buffer (1.0 ml) for four times. The captured proteins were separated by SDS-PAGE. The Western immunoblotting experiment was then performed using anti-ErbB4 antibody.
Agarose beads (iTrap) conjugated with a derivative of Iressa (Iressa—2, FIG. 6A) were used to examine the affinity of Iressa against ErbB4.

PC12-ErbB4-GFP cells [4] = assay: NGF-induced neurite outgrowth, live-cell imaging; assay type: cell-based
ErbB4 [5] = assay: ErbB4 level (western blot, immunofluorescence staining); assay type: cell-based, human; details: 50 nM, 12 hrs treatment, PC12-ErbB4
Procedure: (§3) A. Cells were treated without or with K252a (50 nM), K252a-Me (50 nM) for 30 min followed by treatment with or without 20 ng/mL Nrg1. Cells were lysed 12 hrs after Nrg1 treatment and analyzed by Western blot with anti-ErbB4 antibody. The bands that correspond to ErbB4 are indicated. B. Cells were treated without or with K252a (50 nM), K252a-Me (50 nM) for 12 hrs then fixed and immunostained with anti-ErbB4 and Alexa594 conjugated secondary antibody. GFP and Alexa594 fluorescent cell images were taken using a 20× objective. C. Cells were treated without or with K252a (50 nM) for 12 hrs followed by treatment of 20 ng/mL Alexa594-Nrg1 for 30 mins and fixed. GFP and Alexa594 fluorescent cell images were taken using a 40× objective.
(§4) This phenomenon, confirmed by immunofluorescence staining for ErbB4 in PC12-ErbB4 (FIG. 7B), might explain why K252a potentiate Nrg1-induced neurite outgrowth. To verify that increased level of ErbB4 does contribute to neuregulin signaling, we examined the Nrg1 uptake with Alexa594-labeled Nrg1 (FIG. 7C). Cells were treated with K252a for 12 hrs followed by Alexa594-labeled Nrg1 for 30 min.

PC12-ErbB4 = assay: Uptake of Alexa594-labeled Nrg1; assay type: cell-based; details: K252a 50 nM 12 hrs, then Alexa594-labeled Nrg1 30 min, compared to DMSO-treated cells
Procedure: as §3, §4

NGF-TrkA signaling = details: compared with K252a; cited from earlier work
neurotrophin-3 = details: cited from earlier work
[6] = tested on: cultured hippocampal neurons; details: cited from earlier work
PFC pyramidal neuron = PFC pyramidal neuron current assay; cited from earlier work

T1 sequence (Q15303 26-1292 isoform Q15303-3 limits assumed): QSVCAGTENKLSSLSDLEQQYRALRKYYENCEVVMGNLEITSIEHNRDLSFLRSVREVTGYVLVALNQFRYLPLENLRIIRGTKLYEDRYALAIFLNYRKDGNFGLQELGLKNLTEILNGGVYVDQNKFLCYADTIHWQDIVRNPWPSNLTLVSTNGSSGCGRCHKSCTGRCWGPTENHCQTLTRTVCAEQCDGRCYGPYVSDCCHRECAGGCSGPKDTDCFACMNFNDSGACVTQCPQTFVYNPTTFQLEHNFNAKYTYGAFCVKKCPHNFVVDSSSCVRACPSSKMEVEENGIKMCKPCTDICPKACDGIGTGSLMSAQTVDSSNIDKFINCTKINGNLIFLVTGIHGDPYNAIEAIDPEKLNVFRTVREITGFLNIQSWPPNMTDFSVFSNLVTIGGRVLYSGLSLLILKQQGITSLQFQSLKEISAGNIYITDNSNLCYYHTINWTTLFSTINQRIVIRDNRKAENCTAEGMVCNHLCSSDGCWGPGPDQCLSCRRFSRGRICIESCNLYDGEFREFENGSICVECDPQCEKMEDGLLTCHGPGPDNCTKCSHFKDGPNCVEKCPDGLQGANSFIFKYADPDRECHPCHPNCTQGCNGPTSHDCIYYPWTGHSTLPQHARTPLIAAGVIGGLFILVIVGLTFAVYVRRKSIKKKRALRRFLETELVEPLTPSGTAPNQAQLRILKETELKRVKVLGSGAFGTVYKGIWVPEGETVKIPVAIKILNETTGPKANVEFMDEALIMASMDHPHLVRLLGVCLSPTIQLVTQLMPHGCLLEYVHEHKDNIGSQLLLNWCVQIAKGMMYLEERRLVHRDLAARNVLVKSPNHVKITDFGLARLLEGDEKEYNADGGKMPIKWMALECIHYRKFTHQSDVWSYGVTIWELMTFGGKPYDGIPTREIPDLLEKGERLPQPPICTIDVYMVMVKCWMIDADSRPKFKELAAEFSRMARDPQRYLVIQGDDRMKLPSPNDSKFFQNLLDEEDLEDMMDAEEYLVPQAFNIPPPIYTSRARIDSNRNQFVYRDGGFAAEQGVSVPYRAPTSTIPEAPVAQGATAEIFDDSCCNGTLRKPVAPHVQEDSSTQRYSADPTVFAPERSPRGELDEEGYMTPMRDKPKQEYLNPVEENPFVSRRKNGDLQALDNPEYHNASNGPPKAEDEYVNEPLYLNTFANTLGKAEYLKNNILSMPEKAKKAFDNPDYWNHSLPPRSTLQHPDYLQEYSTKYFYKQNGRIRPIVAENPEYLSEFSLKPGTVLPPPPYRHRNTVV

Compound: COc1cc2ncnc(Nc3cccc(Cl)c3)c2cc1OC [AG1478, 4-(3-Chloroanilino-6,7-dimethoxy)-quinazoline]
effect on Nrg1-induced neurite outgrowth (PC12-ErbB4-GFP cells [1]; 1 μM AG1478, 20 ng/ml Nrg1, 2 days): can specifically inhibit

phosphorylation of ErbB4 receptors induced by Nrg1 (ErbB4 [2]): inhibited
precipitation of ErbB4 by iTrap in competition with free Iressa (ErbB4 [3]): attenuated
Compound: COc1cc2ncnc(Nc3ccc(F)c(Cl)c3)c2cc1OCCCN1CCOCC1 [Iressa, N-(3-chloro-4-fluoro-phenyl)-7-methoxy-6-(3-morpholin-4-ylpropoxy)quinazolin-4-amine]
subsequent phosphorylation of ERK/MAPK (Nrg1-induced) (ERK/MAPK; 20 ng/ml Nrg1): diminished
NGF-induced MAPK activation (ERK/MAPK; Iressa, 20 ng/ml NGF): did not affect

Compound: COC(=O)[C@@]1(O)C[C@H]2O[C@]1(C)n1c3ccccc3c3c4c(c5c6ccccc6n2c5c31)C(=O)NC4 [K252a, methyl (5R,6R,8R)-6-hydroxy-5-methyl-13-oxo-5,6,7,8,14,15-hexahydro-13H-5,8-epoxy-4b,8a,14-triazadibenzo[b,h]cycloocta[1,2,3,4-jkl]cyclopenta[e]-as-indacene-6-carboxylate]
potentiation of Nrg1-induced neurite outgrowth (PC12-ErbB4-GFP cells [1]; same concentration range (10 nM)): potentiated
inhibition of NGF-induced neurite outgrowth (PC12-ErbB4-GFP cells [4]; K252a at 10 nM): completely inhibited
level of ErbB4 (ErbB4 [5]): significantly increased
Nrg1 uptake (PC12-ErbB4): significantly higher

Compound: CC12OC(CC1(O)C(=O)O)n1c3ccccc3c3c4c(c5c6ccccc6n2c5c31)C(=O)NC4 (centres unmarked) [K252b]
potency on inhibiting NGF-TrkA signaling (NGF-TrkA signaling): much lower potency
trophic action of neurotrophin-3 (neurotrophin-3): potentiates

Compound: O=C1NCc2c1c1c3ccccc3[nH]c1c1[nH]c3ccccc3c21 [K252c]
effect on Nrg1-induced neurite outgrowth in kinase inhibitor screening (PC12-ErbB4-GFP cells [1]; single dose (10 micromolar), 48 hours): potentiates

Compound: CNc1cc2c(Nc3cccc(Br)c3)ncnc2cn1 [PD158780]
Nrg1 induced neurite outgrowth in cultured hippocampal neurons [6]: decreases
decrement in current caused by Nrg1 (PFC pyramidal neuron): reverses

Compound: C#Cc1cccc(Nc2ncnc3cc(OCCOC)c(OCCOC)cc23)c1 [Tarceva, N-(3-ethynylphenyl)-6,7-bis(2-methoxyethoxy)quinazolin-4-amine]
IC50 (PC12-ErbB4-GFP cells [1]; read-out: IC50 of inhibition of Nrg1-induced neurite outgrowth): 500 nM
inhibition of NGF-induced neurite outgrowth (PC12-ErbB4-GFP cells [4]; concentration range of 100 nM˜1 (data not shown)): not inhibited

Compound: NGF: Nerve Growth Factor, neurotrophin
mean neurite length induced by NGF (PC12-ErbB4-GFP cells [4]; 20 ng/ml, in the presence of DMSO, 48 hours): 8.7±1.5 μm
